Experimental data as given in ChEMBL document CHEMBL1201862, “PubChem BioAssay data set” (2004).
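96-well plates; 48 h exposure; 5 concentrations. Endpoints by linear interpolation between flanking doses. Not reached: highest tested concentration assigned. GI50 marks 50% less growth.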 Calls of active or inactive are those of the source. Rule as the data show it: active = GI50 up to about 1.1 µM and inactive = higher.

Columns and labels:
Experiment in all cases: inhibition of tumour cell growth, NCI panel, 48 h
NCI/ADR-RES = tested on: NCI/ADR-RES
U-251 = tested on: U-251
OVCAR-8 = tested on: OVCAR-8
RPMI-8226 = tested on: RPMI-8226
UACC-62 = tested on: UACC-62
SK-MEL-2 = tested on: SK-MEL-2
M14 = tested on: M14
PC-3 = tested on: PC-3
SF-295 = tested on: SF-295
MOLT-4 = tested on: MOLT-4
NCI-H23 = tested on: NCI-H23
KM12 = tested on: KM12
SF-268 = tested on: SF-268
SNB-75 = tested on: SNB-75
LOX IMVI = tested on: LOX IMVI
T47D = tested on: T47D
HOP-62 = tested on: HOP-62
COLO 205 = tested on: COLO 205
Malme-3M = tested on: Malme-3M
DMS-273 = tested on: DMS-273

Measured: GI50

CC(C)/C(Cl)=N/OC(=O)Nc1ccc(OC(F)(F)F)cc1
inactive: NCI/ADR-RES 17 µM | U-251 17.3 µM | OVCAR-8 18.1 µM | RPMI-8226 2.49 µM | UACC-62 16.3 µM | SK-MEL-2 14.2 µM | M14 3.78 µM | PC-3 16.1 µM | SF-295 18.5 µM | MOLT-4 2.86 µM | NCI-H23 15.7 µM | KM12 16.6 µM | SF-268 23.2 µM | SNB-75 15.6 µM | LOX IMVI 2.1 µM | T47D 8.55 µM | HOP-62 17.7 µM | COLO 205 1.84 µM | Malme-3M 2.48 µM

NC(CCC(=O)O)C(=O)NC(Cc1ccc(N(CCCl)CCCl)cc1)C(=O)O (stereo not given)
inactive: NCI/ADR-RES > 100 µM | U-251 > 100 µM | OVCAR-8 > 100 µM | RPMI-8226 > 100 µM | UACC-62 > 100 µM | SK-MEL-2 > 100 µM | M14 > 100 µM | PC-3 > 100 µM | SF-295 > 100 µM | MOLT-4 > 100 µM | NCI-H23 > 100 µM | KM12 > 100 µM | SF-268 > 100 µM | SNB-75 > 100 µM | LOX IMVI > 100 µM | T47D > 100 µM | HOP-62 > 100 µM | COLO 205 > 100 µM | Malme-3M > 100 µM

CSC(=N/C=C/c1ccccc1)SC
inactive: NCI/ADR-RES > 100 µM | U-251 > 100 µM | OVCAR-8 > 100 µM | RPMI-8226 > 100 µM | UACC-62 > 100 µM | SK-MEL-2 > 100 µM | M14 > 100 µM | PC-3 64.3 µM | SF-295 > 100 µM | MOLT-4 > 100 µM | NCI-H23 > 100 µM | KM12 > 100 µM | SF-268 > 100 µM | SNB-75 > 100 µM | LOX IMVI 50.5 µM | T47D > 100 µM | HOP-62 > 100 µM | COLO 205 > 100 µM | Malme-3M > 100 µM

CC12Oc3ccc4ccccc4c3C1c1c(ccc3ccccc13)O2 (stereo not given)
inactive: U-251 > 100 µM | OVCAR-8 > 100 µM | UACC-62 > 100 µM | SK-MEL-2 > 100 µM | M14 > 100 µM | SF-295 58.6 µM | MOLT-4 > 100 µM | DMS-273 > 100 µM | NCI-H23 > 100 µM | KM12 > 100 µM | SF-268 > 100 µM | SNB-75 43.3 µM | LOX IMVI > 100 µM | COLO 205 > 100 µM | Malme-3M > 100 µM

CCCC1NC(=O)C(CC(C)C)NC(=O)c2cccc(n2)C(=O)NC(CC(C)C)C(=O)NC(CCC)C(=O)NC(C(=O)OC)CCCCNC1=O (stereo not given)
inactive: NCI/ADR-RES > 100 µM | U-251 32.4 µM | OVCAR-8 32.8 µM | RPMI-8226 14.3 µM | UACC-62 21.2 µM | SK-MEL-2 55 µM | M14 91 µM | PC-3 25.3 µM | SF-295 51.1 µM | MOLT-4 18 µM | NCI-H23 47.9 µM | KM12 27.3 µM | SF-268 28.2 µM | SNB-75 16.5 µM | LOX IMVI 19.2 µM | T47D 55 µM | HOP-62 81.3 µM | COLO 205 40.6 µM | Malme-3M 21.7 µM

O=C(O)CSC1=NCCN1
inactive: NCI/ADR-RES > 100 µM | U-251 > 100 µM | OVCAR-8 > 100 µM | RPMI-8226 > 100 µM | UACC-62 > 100 µM | SK-MEL-2 > 100 µM | M14 > 100 µM | PC-3 > 100 µM | SF-295 > 100 µM | MOLT-4 > 100 µM | NCI-H23 > 100 µM | KM12 > 100 µM | SF-268 > 100 µM | SNB-75 > 100 µM | LOX IMVI > 100 µM | T47D > 100 µM | HOP-62 > 100 µM | COLO 205 > 100 µM | Malme-3M > 100 µM

[N-]=[N+]=N[C@H]1C[C@@H](CO)O[C@H]1n1cnc2c(N)ncnc21
inactive: U-251 > 100 µM | OVCAR-8 > 100 µM | SK-MEL-2 > 100 µM | M14 > 100 µM | SF-295 > 100 µM | DMS-273 > 100 µM | NCI-H23 > 100 µM | KM12 > 100 µM | SF-268 > 100 µM | SNB-75 > 100 µM | LOX IMVI > 100 µM | HOP-62 > 100 µM | COLO 205 > 100 µM | Malme-3M > 100 µM

Cc1ccc(C2=NN(C)COC2C(F)(F)F)cc1 (stereo not given)
inactive: U-251 > 100 µM | OVCAR-8 > 100 µM | RPMI-8226 > 100 µM | UACC-62 18.6 µM | SK-MEL-2 > 100 µM | M14 > 100 µM | SF-295 > 100 µM | MOLT-4 > 100 µM | DMS-273 > 100 µM | NCI-H23 > 100 µM | KM12 > 100 µM | SF-268 > 100 µM | SNB-75 21.2 µM | HOP-62 > 100 µM | COLO 205 > 100 µM | Malme-3M > 100 µM
